# Measurements as given in paper PMC6511888, “Synthesis, Biological Evaluation, and Molecular Modeling Studies of New Thiadiazole Derivatives as Potent P2X7 Receptor Inhibitors” (Frontiers in Chemistry, 2019).
# What was measured:
# P2X7R = target: T1, P2X7R (Mus musculus, UniProt Q9Z1M0); assay: Dye uptake assay (propidium iodide) in mouse peritoneal macrophages; assay type: cell-based; settings: mean ± SD
# T1 construct: plated for 24 h before dye uptake assays, whole-cell patch clamp experiments, and IL-1β release assays; endogenous in cells; host or cells: mouse (Swiss Webster) peritoneal macrophages
# T1 sequence (Q9Z1M0 1-595): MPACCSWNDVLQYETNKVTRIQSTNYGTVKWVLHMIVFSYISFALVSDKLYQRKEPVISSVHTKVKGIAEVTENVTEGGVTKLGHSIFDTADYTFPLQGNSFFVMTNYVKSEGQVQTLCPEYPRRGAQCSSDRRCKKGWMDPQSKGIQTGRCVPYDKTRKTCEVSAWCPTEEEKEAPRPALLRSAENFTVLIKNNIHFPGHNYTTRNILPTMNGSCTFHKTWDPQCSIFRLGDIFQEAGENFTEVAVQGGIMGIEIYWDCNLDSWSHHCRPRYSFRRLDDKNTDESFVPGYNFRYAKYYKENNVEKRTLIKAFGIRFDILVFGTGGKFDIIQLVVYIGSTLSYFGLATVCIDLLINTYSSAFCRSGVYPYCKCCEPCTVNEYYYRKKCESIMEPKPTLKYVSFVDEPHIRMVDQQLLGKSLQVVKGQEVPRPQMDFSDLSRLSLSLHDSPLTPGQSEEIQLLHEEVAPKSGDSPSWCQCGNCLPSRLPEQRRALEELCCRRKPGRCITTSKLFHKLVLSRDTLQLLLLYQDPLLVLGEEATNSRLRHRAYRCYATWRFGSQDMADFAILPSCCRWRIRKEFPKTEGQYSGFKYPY
# Protocol: Our protocols adhered to the Ethical Principles in Animal Experimentation adopted by the Brazilian College of Animal Experimentation and approved by the FIOCRUZ Research Ethics Committee (Faria et al., [2005]; number L039- 2016). Male mouse (Swiss Webster) peritoneal macrophages were collected from peritoneal cavity lavage and plated for 24 h before dye uptake assays, whole-cell patch clamp experiments, and IL-1β release assays.
# (§1) HEK-293 cells transfected with hP2X7R and mouse peritoneal macrophages were plated at 2.5 × 10^6 or 5 × 10^5 cells/ml, respectively, in 96-well culture plates containing DMEM with 10% FBS and anti-biotics (50 U/ml penicillin and […] streptomycin) in a humidified 5% CO2 atmosphere at 37°C for 24 h (Faria et al., [2018]).
# […] In the last 5 min of ATP incubation, propidium iodide for macrophages (PI; 750 nM) or ethidium bromide (EB; 25 μM) for HEK-293 cells was added to all wells. PI dye was excited at a wavelength of 530 nm, and its fluorescence emission was read at a wavelength of 590 nm using an M5 plate reader (Molecular Devices). EB dye was excited at a wavelength of 530 nm and emitted at a wavelength of 620 nm.
# [1] = test system: mouse peritoneal macrophages; assay: LDH release assay (toxicity); assay type: cell-based; settings: relative to maximum LDH release caused by 0.05% Triton X-100, mean ± SD
# Protocol: (§2) Mouse peritoneal macrophages (5 × 10^5 cells) and HEK-293 cells transfected with P2X7R (5 × 10^5 cells) were plated in a 96-well-plate for 24 h before the treatment. […] The supernatant collected in this assay was used to measure the presence of LDH in the media using a cytotoxicity detection kit (Sigma kit for LDH) according to the manufacturer's instructions (Faria et al., [2018]).
# P2Y4R = target: T2, P2Y4R (Mus musculus, UniProt Q9JJS7); assay: MRS4062-induced [Ca2+]i shifts in mice peritoneal macrophages; assay type: cell-based; settings: 1 μM
# T2 construct: endogenous in cells; host or cells: mouse peritoneal macrophages
# Protocol: (§3) Mouse peritoneal macrophages, PC12 cells, J774 cells, and HEPG2 cells were analyzed by fluorescence microscopy to measure the intracellular Ca^2+ concentrations ([Ca^2+]i). Cells were incubated with 2 μM Fura-2-AM (Molecular Probes) for 30 min, and the [Ca^2+]i mobilization was measured in the F340/F380 ratios with a FlexStation 3 multimode microplate reader (Molecular Devices). Cells were plated in translucent 96-well plates (BD Falcon) for 15 min and then washed and incubated in a saline solution with 150 NaCl, 5 KCl, 1 MgCl2, 1 CaCl2, and 10 HEPES (pH 7.4) for 30 min before measurements of [Ca^2+]i. The Ca^2+ influx was induced by stimulating cells with P2 receptor agonists. P2 receptor antagonists were added 10 min before P2 receptor agonist addition. […] Ionomycin was considered a positive control, and the other recordings were normalized in relation to the AUC.
# human P2X7R = target: T3, human P2X7R (Homo sapiens, UniProt Q99572); assay: Dye uptake assay (ethidium bromide) in HEK-293 cells transfected with hP2X7R; assay type: cell-based; settings: ethidium uptake assay; HEK-293 cells transfected with human P2X7R; mean ± SD
# T3 construct: expressed in transfected cells; host or cells: HEK-293
# T3 sequence (Q99572 1-595): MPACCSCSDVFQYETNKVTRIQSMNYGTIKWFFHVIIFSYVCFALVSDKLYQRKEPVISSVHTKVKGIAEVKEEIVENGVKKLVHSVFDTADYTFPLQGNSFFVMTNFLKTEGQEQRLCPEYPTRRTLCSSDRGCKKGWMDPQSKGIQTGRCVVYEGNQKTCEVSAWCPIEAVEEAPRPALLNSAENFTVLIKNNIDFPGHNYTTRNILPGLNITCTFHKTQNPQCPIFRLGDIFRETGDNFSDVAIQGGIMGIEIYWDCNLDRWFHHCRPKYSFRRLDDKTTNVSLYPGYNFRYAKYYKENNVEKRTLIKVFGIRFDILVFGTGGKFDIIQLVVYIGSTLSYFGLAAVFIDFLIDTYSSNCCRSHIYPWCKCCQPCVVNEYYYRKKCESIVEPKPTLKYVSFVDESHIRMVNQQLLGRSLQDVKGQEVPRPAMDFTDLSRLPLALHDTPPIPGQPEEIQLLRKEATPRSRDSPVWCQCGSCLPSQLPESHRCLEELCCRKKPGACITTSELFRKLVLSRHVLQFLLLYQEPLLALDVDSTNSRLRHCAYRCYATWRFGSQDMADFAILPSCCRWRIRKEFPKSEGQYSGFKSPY
# Protocol: HEK-293 cells expressing human P2X7R were maintained in Dulbecco's modified Eagle's medium (DMEM; Sigma-Aldrich) supplemented with 10% fetal bovine serum (FBS; Prolab, Br) and anti-biotics (50 U/ml penicillin and […] streptomycin) in a humidified 5% CO2 atmosphere at 37°C (Faria et al., [2018]). A total of 5 × 10^5 cells were plated at 37°C in a humidified 5% CO2 atmosphere for 24 h in a 96-well plate for dye uptake or IL-1β release assays.
# as §1
# P2X7R antagonist and thiadiazole analogs (1 nM to 0.5 mM) were incubated for 5 min before ATP (5 mM) treatment for 20 min. In the last 5 min of ATP incubation, propidium iodide for macrophages (PI; 750 nM) or ethidium bromide (EB; 25 μM) for HEK-293 cells was added to all wells. PI dye was excited at a wavelength of 530 nm, and its fluorescence emission was read at a wavelength of 590 nm using an M5 plate reader (Molecular Devices). EB dye was excited at a wavelength of 530 nm and emitted at a wavelength of 620 nm.
# [2] = LDH release assay (toxicity); assay type: cell-based, mouse; settings: mouse peritoneal macrophages; 24 h; read-out: Macrophages IC50 (toxic effect)
# Protocol: as §2
# [3] = test system: P2X7R-mediated IL-1β release; assay: ATP-induced IL-1β release (ELISA) in differentiated THP-1 cells; assay type: cell-based, human; settings: ATP-induced IL-1β release; LPS/IFN-differentiated human THP-1 cells; read-out: THP-1 cells IC50
# Protocol: P2X7R-mediated IL-1β release was obtained from differentiated THP-1 cells stimulated with lipopolysaccharide (LPS) before ATP addition. […] THP-1 cells were differentiated with 500 ng/ml phorbol 12-myristate 13-acetate (PMA) and 10 ng/ml IFN-γ cotreatment for 24 h. These cells were activated with 25 ng/ml LPS for 4 h. […] P2X7R antagonists (BBG and A740003) and thiadiazole analogs were added 30 min before the ATP stimulus. The supernatants were collected, centrifuged (1,000 rpm for 5 min at 4°C), and stored at −70°C after LPS incubation. IL-1β was quantified using a standard kit (ABCAM, Cambridge).
# P2Y13R = target: T4, P2Y13R (Homo sapiens, UniProt Q9BPV8); assay: ADPβS-induced [Ca2+]i shifts in HEP2G cells; assay type: cell-based; settings: 1 μM
# T4 construct: endogenous in cells; host or cells: HEP2G (HEPG2) cells
# T4 sequence (Q9BPV8 1-354): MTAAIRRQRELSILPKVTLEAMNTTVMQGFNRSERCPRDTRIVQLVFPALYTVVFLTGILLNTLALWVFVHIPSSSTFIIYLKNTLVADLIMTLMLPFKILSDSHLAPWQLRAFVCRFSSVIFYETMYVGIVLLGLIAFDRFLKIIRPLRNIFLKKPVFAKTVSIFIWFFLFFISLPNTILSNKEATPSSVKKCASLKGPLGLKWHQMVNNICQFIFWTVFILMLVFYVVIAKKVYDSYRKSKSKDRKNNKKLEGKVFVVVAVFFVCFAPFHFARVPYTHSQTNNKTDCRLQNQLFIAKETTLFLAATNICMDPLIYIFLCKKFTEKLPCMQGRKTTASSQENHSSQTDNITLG
# Protocol: as §3
# P2Y12R = target: T5, P2Y12R (Mus musculus, UniProt Q9CPV9); assay: 2MeSADP-activated [Ca2+]i shifts in mouse peritoneal macrophages; assay type: cell-based; settings: 1 μM
# T5 construct: endogenous in cells; host or cells: mouse peritoneal macrophages
# P2Y11R = assay: NAADP-induced [Ca2+]i shifts in mouse peritoneal macrophages; assay type: cell-based; settings: 1 μM
# Protocol: as §3
# [4] = percentage relative to the maximum uptake of propidium stimulated by 1 mM ATP only
# T2 sequence (Q9JJS7 whole entry): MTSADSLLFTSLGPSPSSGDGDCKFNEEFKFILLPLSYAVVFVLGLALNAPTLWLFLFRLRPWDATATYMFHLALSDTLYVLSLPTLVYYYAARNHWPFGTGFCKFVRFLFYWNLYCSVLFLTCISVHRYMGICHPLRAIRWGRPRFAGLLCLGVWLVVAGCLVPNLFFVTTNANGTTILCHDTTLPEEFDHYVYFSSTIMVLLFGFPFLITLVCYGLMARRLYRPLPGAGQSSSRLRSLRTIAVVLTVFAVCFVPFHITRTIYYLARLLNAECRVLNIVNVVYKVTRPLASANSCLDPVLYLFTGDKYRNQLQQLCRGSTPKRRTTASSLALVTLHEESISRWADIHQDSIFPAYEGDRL
# T5 sequence (Q9CPV9 whole entry): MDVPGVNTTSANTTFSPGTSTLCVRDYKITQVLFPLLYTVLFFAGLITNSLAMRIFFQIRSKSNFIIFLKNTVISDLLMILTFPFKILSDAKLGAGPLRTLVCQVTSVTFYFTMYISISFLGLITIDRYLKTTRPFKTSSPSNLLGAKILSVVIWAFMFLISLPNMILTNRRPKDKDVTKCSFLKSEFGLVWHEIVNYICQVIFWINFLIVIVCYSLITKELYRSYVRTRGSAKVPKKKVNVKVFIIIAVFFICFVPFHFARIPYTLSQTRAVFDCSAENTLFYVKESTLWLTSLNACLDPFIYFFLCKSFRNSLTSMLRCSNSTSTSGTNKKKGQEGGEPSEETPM
SMILES,inhibition at 10 µM (P2X7R; [4]),"% LDH release ([1]; 10 μM, cell type not given)",melting point,further results
Cc1cc(C(F)(F)F)nn1-c1nnc(-c2ccc(F)cc2)s1 [Compound 14c],92.5 ± 0.4%,10.6 ± 0.5%,149 to 150 °C,–
CCOC(=O)c1cnn(-c2nnc(-c3ccccc3)s2)c1N [Compound 9e],90.2 ± 0.4%,36.3 ± 11.0%,165 to 167 °C,–
Cc1cc(C)n(-c2nnc(-c3ccccc3)s2)n1 [Compound 11a],92.5 ± 0.3%,34.1 ± 2%,170 to 171 °C,–
Cc1cc(C(F)(F)F)nn1-c1nnc(-c2ccccc2)s1 [Compound 14a],91 ± 1%,32 ± 1%,163 to 164 °C,–
S=C=Nc1cccc(NC(=S)NCCCCNC(=S)Nc2cccc(N=C=S)c2)c1 [MRS2578],–,–,–,Effect on MRS4062-induced [Ca2+]i shifts (P2Y4R): inhibited
N#Cc1cnn(-c2nnc(-c3ccccc3)s2)c1N [Compound 9a],89.2 ± 2.2%,58.1 ± 4.8%,234 to 235 °C,–
CC1(O)CC(C(F)(F)F)=NN1c1nnc(-c2ccc(Cl)cc2)s1 (stereo not drawn) [Compound 13d],71 ± 0.2%,38.5 ± 6.2%,184 to 185 °C,–
CC1(O)CC(C(F)(F)F)=NN1c1nnc(-c2ccccc2Cl)s1 (stereo not drawn) [Compound 13b],90.7 ± 1.6%,19.6 ± 0.6%,–,–
Cc1cc(C(F)(F)F)nn1-c1nnc(-c2ccc(Cl)cc2)s1 [Compound 14d],54.7 ± 0.5%,43 ± 5%,147 to 148 °C,–
Cc1cc(C)n(-c2nnc(-c3ccccc3Cl)s2)n1 [Compound 11b],89.7 ± 2.6%,45.7 ± 1.7%,163 to 165 °C,–
CC1(O)CC(C(F)(F)F)=NN1c1nnc(-c2ccccc2)s1 (stereo not drawn) [Compound 13a],90.5 ± 1.4%,8 ± 0.6%,183 to 185 °C,–
"CCOc1ccc(Nc2ccc(/C(=C3C=C/C(=[N+](/CC)Cc4cccc(S(=O)(=O)[O-])c4)C=C/3C)c3ccc(N(CC)Cc4cccc(S(=O)(=O)O)c4)cc3C)cc2)cc1 [BBG, Brilliant Blue G, reference compound]",–,–,–,"inhibition at 0.75 µM (P2X7R; BBG 750 nM, percentage relative to the maximum uptake of propidium stimulated by 1 mM ATP only): 78.8 ± 3.8%; IC50 (P2X7R; propidium uptake assay, mice peritoneal macrophages): 1200 ± 100 nM; IC50 (human P2X7R): 589 ± 12 nM; IC50 at 24 h [2]: 87000 ± 1000 nM; % LDH release ([1]; BBG 750 nM): 13.2 ± 2.6%; IC50 [3]: 1900 ± 300 nM"
N#Cc1cnn(-c2nnc(-c3ccc(Cl)cc3)s2)c1N [Compound 9d],62.2 ± 4.02%,46.3 ± 5.12%,> 300 °C,–
Cc1cc(C(F)(F)F)nn1-c1nnc(-c2ccccc2Cl)s1 [Compound 14b],92 ± 2%,26.6 ± 1.2%,139 to 140 °C,–
CC1(O)CC(C(F)(F)F)=NN1c1nnc(-c2ccc(F)cc2)s1 (stereo not drawn) [Compound 13c],92 ± 0.4%,45.3 ± 1.4%,182 to 183 °C,–
Cc1nc(N=Nc2cc([N+](=O)[O-])ccc2Cl)c(COP(=O)(O)O)c(C=O)c1O [MRS2211],–,–,–,Effect on ADPβS-induced [Ca2+]i shifts (P2Y13R): inhibited
CCOC(=O)c1cnn(-c2nnc(-c3ccc(F)cc3)s2)c1N [Compound 9g],90.8 ± 1.1%,22.6 ± 0.3%,250 to 251 °C,–
CCCSc1nc(N[C@@H]2C[C@H]2c2ccc(F)c(F)c2)c2nnn([C@@H]3C[C@H](OCCO)[C@@H](O)[C@H]3O)c2n1 [Ticagrelor],–,–,–,Effect on 2MeSADP-activated [Ca2+]i shifts (P2Y12R): inhibited
Cc1cc(C)n(-c2nnc(-c3ccc(Cl)cc3)s2)n1 [Compound 11d],69.8 ± 0.7%,36.94 ± 10.6%,202 to 203 °C,–
CCOC(=O)c1cnn(-c2nnc(-c3ccc(Cl)cc3)s2)c1N [Compound 9h],64 ± 3.7%,15 ± 1.9%,252 to 253 °C,–
Cc1ccc(C(=O)Nc2cc(S(=O)(=O)O)cc3ccc(S(=O)(=O)O)cc23)cc1NC(=O)Nc1cc(C(=O)Nc2cc(S(=O)(=O)O)cc3ccc(S(=O)(=O)O)cc23)ccc1C [NF340],–,–,–,Effect on NAADP-induced [Ca2+]i shifts (P2Y11R): inhibited
